From patent US11498929B2, “Chromenopyrimidine derivatives as phosphatidylinsitol phosphate kinase inhibitors” (Hibercell, Inc., priority 2019, dated 2022)

Assays:
PIP4K2A = target: T1, PIP4K2A (Homo sapiens, UniProt P48426); test: Kinase Assay - PIP4K2 A (inhibition of PIP4K2 A kinase assay); format: biochemical; settings: compounds listed under IC50 bin headings
T1 construct: GST; made in house; host or cells: E. coli
T1 sequence (P48426 1-406): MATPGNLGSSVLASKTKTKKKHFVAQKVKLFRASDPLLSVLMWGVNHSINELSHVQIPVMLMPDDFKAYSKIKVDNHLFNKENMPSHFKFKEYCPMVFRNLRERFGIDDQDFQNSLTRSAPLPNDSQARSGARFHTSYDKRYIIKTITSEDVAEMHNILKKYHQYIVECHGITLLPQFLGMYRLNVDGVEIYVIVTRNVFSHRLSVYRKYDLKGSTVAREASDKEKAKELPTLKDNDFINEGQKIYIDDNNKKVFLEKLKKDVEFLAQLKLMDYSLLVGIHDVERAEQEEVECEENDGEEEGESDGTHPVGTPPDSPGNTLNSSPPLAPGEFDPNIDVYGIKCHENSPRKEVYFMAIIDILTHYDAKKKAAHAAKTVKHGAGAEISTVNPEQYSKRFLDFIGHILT
Protocol: Dilution series of the compounds were prepared in DMSO at 100 times the final assay concentration (n1=n0/3 in 10 points). The compounds were further diluted to three times the assay concentration in assay buffer (20 mM MOPS pH 7.2, 25 mM magnesium chloride, 0.005% Tween 20). 6 μL of the diluted compounds were added to a 384 well assay plate followed by 9 μL of a mix consisting of 4 nM PIP4K2A (full length protein, SignalChem) and 100 μM PI(5)P diC8 (Tebu-Bio). Enzyme and compounds were pre-incubated at room temperature for 15 minutes.
Then 3 μL of a solution containing 60 μM ATP (Promega) in assay buffer was added to the wells containing compound and enzyme and mixing was performed by pipetting several times. The reaction was incubated at room temperature for 1 h. Then 18 μL of ADP-Glo™ Reagent (Promega) was added to stop the kinase reaction and deplete the unconsumed ATP, mixing was performed by pipetting several times. The plate was incubated at room temperature for 40 minutes before addition of 36 μL of Kinase Detection Reagent (Promega) to convert ADP to ATP and introduce luciferase and luciferin to detect ATP. The reaction was incubated at room temperature for 40 minutes before the luminescence was measured in a in a Victor 3V 1420 multilabel counter (Perkin Elmer).
Percent inhibition of the compounds as compared to dimethyl sulfoxide treated control samples was calculated. Compound concentration versus percent inhibition were fitted to generate IC50 values. […]

MOLM-16 = MOLM-16 EC50 assay; format: cell-based; settings: MOLM16
[1] = target: T2, PIP4K2 B (GST-tagged PIP4KtypeIIB) (Homo sapiens, UniProt P78356); test: Kinase Assay - PIP4K2 B (inhibition of PIP4K2 B kinase assay); format: biochemical; settings: compounds listed under IC50 bin headings
T2 construct: GST; made in house; host or cells: E. coli
T2 sequence (P78356 1-416): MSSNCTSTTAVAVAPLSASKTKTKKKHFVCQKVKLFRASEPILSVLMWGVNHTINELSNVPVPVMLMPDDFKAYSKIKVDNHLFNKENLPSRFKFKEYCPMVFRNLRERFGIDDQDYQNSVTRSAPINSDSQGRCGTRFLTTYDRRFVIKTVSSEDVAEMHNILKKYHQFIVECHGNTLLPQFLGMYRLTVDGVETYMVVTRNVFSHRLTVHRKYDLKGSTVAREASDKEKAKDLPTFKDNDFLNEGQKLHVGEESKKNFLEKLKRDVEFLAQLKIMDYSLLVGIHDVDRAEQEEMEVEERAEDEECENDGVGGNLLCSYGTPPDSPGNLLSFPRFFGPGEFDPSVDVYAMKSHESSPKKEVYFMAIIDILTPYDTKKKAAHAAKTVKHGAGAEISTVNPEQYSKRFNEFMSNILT
Text: GST tagged PIP4KtypeIIA and B enzymes were overexpressed in E. Coli and purified to >80% homogeneity. Phosphatidyl inositol-5-phosphate (PI5P, Cat. #850152, Avanti Polar Lipids Inc.) was used as the lipid substrate and phosphatidyl ethanolamine (DOPE 18:1, Cat. #850725, Avanti Polar Lipids Inc.) was used as the carrier lipid for assays. Ultrapure ATP and GTP was purchased from Bellbrooke Labs. ADP Glo reagents were obtained from Promega. Transcreener FI reagent was obtained from Bellbrooke labs.
GST-tagged PIP4KtypeIIB (3.4 uL, 2.77 mg/mL) was diluted to 5 mL using HNE buffer to yield 5× enzyme stock (25 nM)
Lipid Preparation: In a 10 mL pyrex glass vial, 1 ug of PI5P and 1 ug of DOPE were suspended in 2.5 mL of HEPES buffer mix and 2.5 mL of H:E buffer. The contents were mixed and sonicated for 3 min to yield a translucent lipid stock.
Compound Preparation: Compounds were stored as 5 mM stocks in neat DMSO as room temperature in glass vials. 5 mM stocks were diluted to 2 mM and then serially diluted (3×) in neat DMSO in 96 well polypropylene plates. From the serially diluted stocks, 3 uL was delivered into 250 uL of 25% DMSO (in water) to generate 5× compound stocks. Typically, the highest compound conc. was 24 uM.
The assay volume was kept at 25 uL. To each well of the reaction plate, 10 uL of lipid stock (1:1 ratio PI5P:DOPE) was delivered. This was followed by the addition of 5 uL of compound in 25% DMSO. Then, to each well, 5 uL of 25 nM (5×) typeIIB enzyme was delivered. The contents were mixed well and incubated for 1 h at 27 C. After 1 h, reaction was initiated by adding 5 uL of 500 uM GTP and the contents were mixed well with a multi-channel pipetteman. The final concentration of the reagents are as follows: 50 mM HEPES, pH 7.3, 10 mM MgCl2, 20 mM NaCl, 0.01% v/v triton-X100, 5% DMSO, 100 uM GTP, 80 uM (2 ug) PI5P, 2 ug DOPE, and 5 nM PIP4KIIB Typically, the highest conc. of compounds was 4.8 uM and the lowest conc. was 0.
After 2 h, the reaction was quenched by adding 25 uL of transcreener FI reagent. The contents were incubated at RT for 1 h and the Fluorescence (Ex:584 Em: 623) was read using Molecular Devices Paradigm plate reader. […] The blanks were averaged and subtracted from all other wells. Using a calibration curve, RFU was converted to uM GDP (product). IC50 was calculated by plotting the residual activity (expressed as % No inhibitor control) vs. log [Inh. conc.]

| IC50 (PIP4K2A) [nM] | EC50 (MOLM-16) [nM] | IC50 [1] [nM] | Compound |
| --- | --- | --- | --- |
| ≤ 1 | 100 to 1000 | 1 to 10 | CNC(=O)N1CCOc2ncc(Nc3ncc4c(n3)C(C)(C)Oc3cc(-n5nncc5C)ccc3-4)cc21 [Compound 8, 7-{[5,5-dimethyl-8-(5-methyl-1H-1,2,3-triazol-1-yl)-5H-chromeno[3,4-d]pyrimidin-3-yl]amino}-N-methyl-1H,2H,3H-pyrido[2,3-b][1,4]oxazine-1-carboxamide] |
| ≤ 1 | 100 to 1000 | 1 to 10 | Cc1cnnn1-c1ccc2c(c1)OC(C)(C)c1nc(Nc3cnc4c(c3)N(C(=O)NC3CC3)CCO4)ncc1-2 [Compound 9, N-cyclopropyl-7-{[5,5-dimethyl-8-(5-methyl-1H-1,2,3-triazol-1-yl)-5H-chromeno[3,4-d]pyrimidin-3-yl]amino}-1H,2H,3H-pyrido[2,3-b][1,4]oxazine-1-carboxamide] |
| ≤ 1 | 100 to 1000 | 1 to 10 | Cc1cnnn1-c1ccc2c(c1)OC(C)(C)c1nc(Nc3cnc4c(c3)N(C(=O)CN(C)C)CCO4)ncc1-2 [Compound 10, 1-(7-{[5,5-dimethyl-8-(5-methyl-1H-1,2,3-triazol-1-yl)-5H-chromeno[3,4-d]pyrimidin-3-yl]amino}-1H,2H,3H-pyrido[2,3-b][1,4]oxazin-1-yl)-2-(dimethylamino)ethan-1-one] |
| ≤ 1 | 100 to 1000 | 1 to 10 | CNC(=O)N1CCOc2ncc(Nc3ncc4c(n3)C(C)(C)Oc3cc(-c5nocc5C)ccc3-4)cc21 [Compound 11, 7-{[5,5-dimethyl-8-(4-methyl-1,2-oxazol-3-yl)-5H-chromeno[3,4-d]pyrimidin-3-yl]amino}-N-methyl-1H,2H,3H-pyrido[2,3-b][1,4]oxazine-1-carboxamide] |
| ≤ 1 | > 1000 | 1 to 10 | CC(=O)OC(C)C(=O)N1CCOc2ncc(Nc3ncc4c(n3)C(C)(C)Oc3cc(-n5nncc5C)ccc3-4)cc21 (stereo not drawn) [Compound 12, 1-(7-{[5,5-dimethyl-8-(5-methyl-1H-1,2,3-triazol-1-yl)-5H-chromeno[3,4-d]pyrimidin-3-yl]amino}-1H,2H,3H-pyrido[2,3-b][1,4]oxazin-1-yl)-1-oxopropan-2-yl acetate] |
| ≤ 1 | 100 to 1000 | 1 to 10 | Cc1cnnn1-c1ccc2c(c1)OC(C)(C)c1nc(Nc3cnc4c(c3)N(CC3COC3)CCO4)ncc1-2 [Compound 13, 5,5-dimethyl-8-(5-methyl-1H-1,2,3-triazol-1-yl)-N-{1-[(oxetan-3-yl)methyl]-1H,2H,3H-pyrido[2,3-b][1,4]oxazin-7-yl}-5H-chromeno[3,4-d]pyrimidin-3-amine] |
| ≤ 1 | > 1000 | 1 to 10 | Cc1cnnn1-c1ccc2c(c1)OC(C)(C)c1nc(Nc3cncc(CNCCS(C)(=O)=O)c3)ncc1-2 [Compound 14, N-[5,5-dimethyl-8-(5-methyl-1H-1,2,3-triazol-1-yl)-5H-chromeno[3,4-d]pyrimidin-3-yl]-5-{[(2-methanesulfonylethyl)amino]methyl}pyridin-3-amine] |
| ≤ 1 | 100 to 1000 | 1 to 10 | Cc1conc1-c1ccc2c(c1)OC(C)(C)c1nc(Nc3cnc4c(c3)N(C(=O)N(C)C)CCO4)ncc1-2 [Compound 15, 7-{[5,5-dimethyl-8-(4-methyl-1,2-oxazol-3-yl)-5H-chromeno[3,4-d]pyrimidin-3-yl]amino}-N,N-dimethyl-1H,2H,3H-pyrido[2,3-b][1,4]oxazine-1-carboxamide] |
| ≤ 1 | > 1000 | 1 to 10 | CC(=O)OC1(C(=O)N2CCOc3ncc(Nc4ncc5c(n4)C(C)(C)Oc4cc(-n6nncc6C)ccc4-5)cc32)CC1 [Compound 16, 1-(7-{[5,5-dimethyl-8-(5-methyl-1H-1,2,3-triazol-1-yl)-5H-chromeno[3,4-d]pyrimidin-3-yl]amino}-1H,2H,3H-pyrido[2,3-b][1,4]oxazine-1-carbonyl)cyclopropyl acetate] |
| ≤ 1 | 100 to 1000 | 1 to 10 | CCN1CCN(Cc2cncc(Nc3ncc4c(n3)C(C)(C)Oc3cc(-n5nncc5C)ccc3-4)c2)CC1 [Compound 17, N-[5,5-dimethyl-8-(5-methyl-1H-1,2,3-triazol-1-yl)-5H-chromeno[3,4-d]pyrimidin-3-yl]-5-[(4-ethylpiperazin-1-yl)methyl]pyridin-3-amine] |
| 1 to 10 | 10 to 100 | 10 to 100 | CC1(C)Oc2cc(N3CCCC3=O)ccc2-c2cnc(Nc3cncc(N4CCN(CCO)CC4)c3)nc21 [Compound 19, 1-[3-({5-[4-(2-hydroxyethyl)piperazin-1-yl]pyridin-3-yl}amino)-5,5-dimethyl-5H-chromeno[3,4-d]pyrimidin-8-yl]pyrrolidin-2-one] |
| 1 to 10 | 10 to 100 | 10 to 100 | CN1CCN(CC(=O)N2CCOc3ncc(Nc4ncc5c(n4)C(C)(C)Oc4cc(N6CCCC6=O)ccc4-5)cc32)CC1 [Compound 22, 1-[5,5-dimethyl-3-({1-[2-(4-methylpiperazin-1-yl)acetyl]-1H,2H,3H-pyrido[2,3-b][1,4]oxazin-7-yl}amino)-5H-chromeno[3,4-d]pyrimidin-8-yl]pyrrolidin-2-one] |
| 1 to 10 | 10 to 100 | 10 to 100 | CC1(C)Oc2cc(N3CCCC3=O)ccc2-c2cnc(Nc3cnc4c(c3)N(C(=O)NC3CC3)CCO4)nc21 [Compound 23, N-cyclopropyl-7-{[5,5-dimethyl-8-(2-oxopyrrolidin-1-yl)-5H-chromeno[3,4-d]pyrimidin-3-yl]amino}-1H,2H,3H-pyrido[2,3-b][1,4]oxazine-1-carboxamide] |
| 1 to 10 | 10 to 100 | 10 to 100 | CN(C)C1CCN(c2cncc(Nc3ncc4c(n3)C(C)(C)Oc3cc(N5CCCC5=O)ccc3-4)c2)CC1 [Compound 25, 1-[3-({5-[4-(dimethylamino)piperidin-1-yl]pyridin-3-yl}amino)-5,5-dimethyl-5H-chromeno[3,4-d]pyrimidin-8-yl]pyrrolidin-2-one] |
